pIC50: −log10 of the molar value.
What follows are molecules tested against PRMT5/MEP50 protein complex (Homo sapiens (Human), UniProt O14744) (assay: PRMT5 biochemical assay (3H-SAM methylation of H4(1-21) peptide, filter plate scintillation counting)). Settings: PRMT5 enzyme inhibition; 10 nM PRMT5/MEP50 complex, 200 nM H4(1-21) peptide, 1 uM SAM, 25 minute incubation at room temperature.
Experimental: Following dilution, 1 ul was added to an empty 96-well microtiter plate. PRMT5/MEP50 protein complex was combined with H4(1-21) peptide ([…]) in PRMT5 assay buffer (50 mM Tris pH 8.5, 50 mM NaCl, 5 mM MgCl2, 1 mM EDTA, 1 mM TCEP) and 44 ul was added to the microtiter plate containing compound. S-Adenosyl-L-methionine (SAM) was prepared by combining ^3H labelled SAM with unlabelled SAM in PRMT5 assay buffer such that the final SAM concentration was 10 uM and the specific activity was 0.2 uCi/ul. The reaction was initiated by adding 5 ul of SAM stock to the microtiter plate. The final reaction conditions were 10 nM PRMT5/MEP50 complex, 200 nM peptide and 1 uM SAM. Following a 25 minute incubation at room temperature, the reaction was stopped with the addition of 100 uL of 20% TCA. The 3H-peptide product was captured using a 96-well filter plate (MSIPN4B, Millipore) and washed 5 times with PBS buffer. Scintillation fluid (100 ul) was added to the dried filter plate and counted in a liquid scintillation counter. IC50 values were determined by fitting the data to the standard 4-parameter dose response equation using Pfizer proprietary software.
In the final construct PRMT5 ORF was under control of polyhedrin promoter (polH) while MEP50 ORF was under control of p10 promoter.
Viruses were generated using standard Bac-to-Bac viral generation protocols (Life Technologies) and amplified to high-titer passage two (P2) stocks. Protein over expression was conducted in exponentially growing Sf21 cells infected at 2×106 with P2 viral stock at MOI=1 of PRMT5-Mep50 dual construct virus and Mep50 construct virus at 1:1 ratio. The co-expression protocol was used to supplement additional Mep50 for FlagPRMT5-Mep50 heterodimer formation. Cells were harvested at 72 h post infection by centrifugation and frozen pellet was stored at −80° C.
FlagPRMT5-Mep50 complex was purified from cell lysate using Flag affinity chromatography. Cell were lyzed in 50 mM Tris 7.5, 200 mM NaCl, 10% glycerol, 0.25 mM TCEP supplemented with EDTA-free protease inhibitor cocktail (Roche). 1.5 ml of lysis buffer was added per 1 g of frozen pellet. The clarified lysate was obtained by centrifugation of cell lysate at 10,000 g for 1 h at 4 C. 5 ml of Anti-FLAG M2 Agarose (Sigma) […] was added to the clarified lysate to isolate FlagPRMT5-Mep50. Following batch binding for 3 h at 4 C, Flag resin bound to FlagPRMT5-Mep50 washed with 20 column volumes (CV) of 50 mM Tris 7.5, 200 mM NaCl, 10% glycerol, 0.25 mM TCEP followed by elution of FlagPRMT5-Mep50 complex using 3 CV of 50 mM Tris 7.5, 200 mM NaCl, 10% glycerol, 0.25 mM TCEP supplemented with 200 ug/ml of FLAG Peptide ([…]). […] Peak fractions containing FlagPRMT5-Mep50 complex were concentrated to 1.6 mg/ml, flash frozen in small aliquots using liquid nitrogen and stored at −80° C.

Chain of PRMT5/MEP50 protein complex (O14744 other isoform, or with tags, fused parts or gaps): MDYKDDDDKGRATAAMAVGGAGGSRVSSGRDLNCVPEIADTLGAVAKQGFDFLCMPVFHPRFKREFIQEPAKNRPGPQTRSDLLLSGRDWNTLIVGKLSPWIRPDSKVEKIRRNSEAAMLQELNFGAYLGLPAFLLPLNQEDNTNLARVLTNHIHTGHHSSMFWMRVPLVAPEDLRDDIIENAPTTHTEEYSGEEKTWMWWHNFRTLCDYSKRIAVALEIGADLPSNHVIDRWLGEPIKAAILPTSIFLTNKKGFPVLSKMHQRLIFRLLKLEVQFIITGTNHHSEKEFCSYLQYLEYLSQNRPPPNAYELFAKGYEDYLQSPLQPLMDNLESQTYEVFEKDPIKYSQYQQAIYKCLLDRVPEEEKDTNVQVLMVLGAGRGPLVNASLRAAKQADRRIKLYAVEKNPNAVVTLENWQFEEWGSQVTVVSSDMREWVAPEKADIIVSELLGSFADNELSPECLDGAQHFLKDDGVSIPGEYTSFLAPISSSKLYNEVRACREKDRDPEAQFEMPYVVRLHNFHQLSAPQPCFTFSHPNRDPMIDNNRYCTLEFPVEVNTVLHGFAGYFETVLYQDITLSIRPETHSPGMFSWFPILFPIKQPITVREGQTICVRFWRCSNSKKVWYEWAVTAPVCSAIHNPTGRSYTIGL
Chain of PRMT5/MEP50 protein complex (Q9BQA1 whole entry partner): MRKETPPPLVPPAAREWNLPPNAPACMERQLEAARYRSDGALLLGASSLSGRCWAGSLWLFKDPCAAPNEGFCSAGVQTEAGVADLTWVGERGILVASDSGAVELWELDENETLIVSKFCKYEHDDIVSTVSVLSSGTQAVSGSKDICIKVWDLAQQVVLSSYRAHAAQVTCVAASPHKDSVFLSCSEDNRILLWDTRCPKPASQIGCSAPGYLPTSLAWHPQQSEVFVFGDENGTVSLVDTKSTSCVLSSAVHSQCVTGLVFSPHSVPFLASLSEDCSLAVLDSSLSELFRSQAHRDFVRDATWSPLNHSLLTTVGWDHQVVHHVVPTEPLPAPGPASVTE

Structure (SMILES) | pIC50
Cc1ncnc2c1ccn2[C@@H]1O[C@H](C(=O)c2ccc(F)c(F)c2)[C@@H](O)[C@H]1O [Example 91, (3,4-difluorophenyl)((2S,3S,4R,5R)-3,4-dihydroxy-5-(4-methyl-7H-pyrrolo[2,3-d]pyrimidin-7-yl)tetrahydrofuran-2-yl)methanone] | 6.45
Cc1ncnc2c1ccn2[C@@H]1O[C@H]([C@H](O)C2CC2)[C@@H](O)[C@H]1O [Example 46, (2R,3S,4R,5R)-2-((R)-cyclopropyl(hydroxy)methyl)-5-(4-methyl-7H-pyrrolo[2,3-d]pyrimidin-7-yl)tetrahydrofuran-3,4-diol] | 6.44
O[C@@H]1[C@H](O)[C@@H]([C@H](O)c2ccc(F)c(F)c2)O[C@H]1n1ccc2c(C(F)F)ncnc21 [Example 97, (2R,3R,4S,5R)-2-(4-(difluoromethyl)-7H-pyrrolo[2,3-d]pyrimidin-7-yl)-5-((R)-(3,4-difluorophenyl)(hydroxy)methyl)tetrahydrofuran-3,4-diol] | 7.52
Cc1ncnc2c1ccn2[C@@H]1O[C@@H](C(O)CO)[C@@H](O)[C@H]1O (stereo partly drawn) [Example 79, (2S,3S,4R,5R)-2-(1,2-dihydroxyethyl)-5-(4-methyl-7H-pyrrolo[2,3-d]pyrimidin-7-yl)tetrahydrofuran-3,4-diol] | 5.28
O[C@@H]1[C@H](O)[C@@H]([C@H](O)c2ccc(F)cc2)O[C@H]1n1ccc2c(C(F)F)ncnc21 [Example 96, (2R,3R,4S,5R)-2-(4-(difluoromethyl)-7H-pyrrolo[2,3-d]pyrimidin-7-yl)-5-((R)-(4-fluorophenyl)(hydroxy)methyl)tetrahydrofuran-3,4-diol] | 7.29
Cc1ncnc2c1ccn2[C@@H]1O[C@H]([C@H](O)C(C)C)[C@@H](O)[C@H]1O [Example 48, (2R,3S,4R,5R)-2-((R)-1-hydroxy-2-methylpropyl)-5-(4-methyl-7H-pyrrolo[2,3-d]pyrimidin-7-yl)tetrahydrofuran-3,4-diol] | 6.29
Cc1ncnc2c1ccn2[C@@H]1O[C@H]([C@H](O)c2ccc3c(c2)ncn3C(F)F)[C@@H](O)[C@H]1O [Example 23, (2R,3S,4R,5R)-2-((R)-(1-(difluoromethyl)-1H-benzo[d]imidazol-5-yl)(hydroxy)methyl)-5-(4-methyl-7H-pyrrolo[2,3-d]pyrimidin-7-yl)tetrahydrofuran-3,4-diol] | 6.10
Cc1ncnc2c1ccn2[C@@H]1O[C@H]([C@H](O)c2cccc(S(C)(=O)=O)c2)[C@@H](O)[C@H]1O [Example 19, (2R,3S,4R,5R)-2-((R)-hydroxy(3-(methylsulfonyl)phenyl)methyl)-5-(4-methyl-7H-pyrrolo[2,3-d]pyrimidin-7-yl)tetrahydrofuran-3,4-diol] | 7.19
CCC[C@H](O)[C@H]1O[C@@H](n2cnc3c(N)ncnc32)[C@H](O)[C@@H]1O [Example 6, (2R,3R,4S,5R)-2-(6-amino-9H-purin-9-yl)-5-((S)-1-hydroxybutyl)tetrahydrofuran-3,4-diol] | 4.68
CC(C)C[C@@H](O)[C@H]1O[C@@H](n2cnc3c(N)ncnc32)[C@H](O)[C@@H]1O [Example 7, (2R,3R,4S,5R)-2-(6-amino-9H-purin-9-yl)-5-((R)-1-hydroxy-3-methylbutyl)tetrahydrofuran-3,4-diol] | 5.74
Cc1ncnc2c1ccn2[C@@H]1O[C@H]([C@@H](O)c2ccco2)[C@@H](O)[C@H]1O [Example 55, (2S,3S,4R,5R)-2-((R)-furan-2-yl(hydroxy)methyl)-5-(4-methyl-7H-pyrrolo[2,3-d]pyrimidin-7-yl)tetrahydrofuran-3,4-diol] | 5.32
Cc1ncnc2c1ccn2[C@@H]1O[C@@H](c2cnco2)[C@@H](O)[C@H]1O [Example 69, (2R,3R,4S,5R)-2-(4-methyl-7H-pyrrolo[2,3-d]pyrimidin-7-yl)-5-(oxazol-5-yl)tetrahydrofuran-3,4-diol] | 5.98
Cc1ncnc2c1ccn2[C@@H]1O[C@H]([C@@H](O)C2CCC2)[C@@H](O)[C@H]1O [Example 53, (2R,3S,4R,5R)-2-((S)-cyclobutyl(hydroxy)methyl)-5-(4-methyl-7H-pyrrolo[2,3-d]pyrimidin-7-yl)tetrahydrofuran-3,4-diol] | 5.03
CC(C)C[C@H](O)[C@H]1O[C@@H](n2cnc3c(N)ncnc32)[C@H](O)[C@@H]1O [Example 8, (2R,3R,4S,5R)-2-(6-amino-9H-purin-9-yl)-5-((S)-1-hydroxy-3-methylbutyl)tetrahydrofuran-3,4-diol] | 4.75
Cc1ncnc2c1ccn2[C@@H]1OC([C@H](O)c2cc(F)cc(C(F)(F)F)c2)[C@@H](O)[C@H]1O (stereo partly drawn) [Example 17, (3S,4R,5R)-2-((3-fluoro-5-(trifluoromethyl)phenyl)(hydroxy)methyl)-5-(4-methyl-7H-pyrrolo[2,3-d]pyrimidin-7-yl)tetrahydrofuran-3,4-diol] | 5.64
C[C@@](O)(c1ccc(Cl)c(F)c1)[C@H]1O[C@@H](n2ccc3c(N)ncnc32)[C@H](O)[C@@H]1O [Example 105, (2R,3R,4S,5S)-2-(4-amino-7H-pyrrolo[2,3-d]pyrimidin-7-yl)-5-((R)-1-(4-chloro-3-fluorophenyl)-1-hydroxyethyl)tetrahydrofuran-3,4-diol] | 8.70
Cc1ncnc2c1ccn2[C@@H]1O[C@@H](C(C)(C)O)[C@@H](O)[C@H]1O [Example 90, (2R,3S,4R,5R)-2-(2-hydroxypropan-2-yl)-5-(4-methyl-7H-pyrrolo[2,3-d]pyrimidin-7-yl)tetrahydrofuran-3,4-diol] | 5.49
Cc1ncnc2c1ccn2[C@@H]1O[C@H]([C@@H](O)C(F)(F)F)[C@@H](O)[C@H]1O [Example 57, (2R,3R,4S,5S)-2-(4-methyl-7H-pyrrolo[2,3-d]pyrimidin-7-yl)-5-((R)-2,2,2-trifluoro-1-hydroxyethyl)tetrahydrofuran-3,4-diol] | 5.20
Cc1ncnc2c1ccn2[C@@H]1O[C@H]([C@H](O)c2cccc(C(F)(F)F)c2)[C@@H](O)[C@H]1O [Example 16, (2R,3S,4R,5R)-2-((R)-hydroxy(3-(trifluoromethyl)phenyl)methyl)-5-(4-methyl-7H-pyrrolo[2,3-d]pyrimidin-7-yl)tetrahydrofuran-3,4-diol] | 7.64
Cc1ncnc2c1ccn2[C@@H]1O[C@H]([C@@H](O)c2cccc(F)c2)[C@@H](O)[C@H]1O [Example 35, (2R,3S,4R,5R)-2-((S)-(3-fluorophenyl)(hydroxy)methyl)-5-(4-methyl-7H-pyrrolo[2,3-d]pyrimidin-7-yl)tetrahydrofuran-3,4-diol] | 5.76
Cc1ncnc2c1ccn2[C@@H]1O[C@H]([C@@H](O)C2CCCC2)[C@@H](O)[C@H]1O [Example 43, (2R,3S,4R,5R)-2-((S)-cyclopentyl(hydroxy)methyl)-5-(4-methyl-7H-pyrrolo[2,3-d]pyrimidin-7-yl)tetrahydrofuran-3,4-diol] | 4.13
Cc1ncnc2c1ccn2[C@@H]1O[C@H]([C@H](O)c2ccc3cnn(C)c3c2)[C@@H](O)[C@H]1O [Example 15, (2R,3S,4R,5R)-2-((R)-hydroxy(1-methyl-1H-indazol-6-yl)methyl)-5-(4-methyl-7H-pyrrolo[2,3-d]pyrimidin-7-yl)tetrahydrofuran-3,4-diol] | 7.41
Cc1ncnc2c1ccn2[C@@H]1O[C@H]([C@H](O)c2ccnc(N(C)C)c2)[C@@H](O)[C@H]1O [Example 14, (2R,3S,4R,5R)-2-((R)-(2-(dimethylamino)pyridin-4-yl)(hydroxy)methyl)-5-(4-methyl-7H-pyrrolo[2,3-d]pyrimidin-7-yl)tetrahydrofuran-3,4-diol] | 7.77

Reference: patent US10428104B2, “Substituted nucleoside derivatives useful as anticancer agents” (Pfizer Inc., priority 2015, dated 2019)
